Measured values: patent US4239779A, “Use of phenylglyoxylic acids and derivatives thereof in the treatment of ischemic heart disease” (Pfizer Inc., priority 1979, dated 1980)

What was measured:
anesthetized beagle dogs = assay: Myocardial blood flow and metabolism in fasted, closed-chest, anesthetized, electrically paced beagle dogs; format: in vivo, dog; conditions: 0.02 to 0.1 millimole/kg intravenously; in the presence and absence of isoprenaline
Procedure: The ability of compounds of formula (I) to reduce oxygen demand and affect the relative utilization of carbohydrate and lipid metabolites in the heart may be assessed by measuring the effect of the compounds on myocardial blood flow and metabolism in fasted, closed-chest, anesthetized beagle dogs, with cardiac catheterization to enable simultaneous sampling of coronary sinus and arterial blood to be carried out. Coronary sinus blood flow is measured by the hydrogen gas clearance technique described by Aukland et al (Circulation Res. 1964, 14, 164). The heart is paced electrically at 155 beats/min. and recordings of hemodynamic parameters (blood pressure, left ventricular pressure and the first derivative of the latter) are made continuously. Control measurements of coronary blood flow are made and samples of blood taken at 40 min. intervals, both in an untreated animal and in the same animal dosed with an infusion of isoprenaline ([…].), which both stimulates cardiac contraction and increases plasma free fatty acid levels. The compound of formula (I) is then administered intravenously and measurements are made and samples taken again, 40 minutes and 90 minutes later. The blood samples from the artery and coronary sinus are analyzed for oxyhemoglobin, pyruvate and free fatty acid (FFA) content, differences between those of the arterial and coronary sinus blood, when multiplied by coronary blood flow, being a measure of oxygen consumption, pyruvate uptake and FFA uptake by the myocardium respectively.

[1] = test system: pyruvate dehydrogenase (PDH); assay: Proportion of active pyruvate dehydrogenase (PDHa/PDHt) in hearts of fat-fed rats after dosing; format: in vivo; conditions: rat heart
Procedure: (2) Rats fed on a high fat diet as in test (1) (a), are treated either with placebo or with the compound of formula (I), by subcutaneous or intravenous injection or by oral administration, and at various times after treatment the rat hearts are removed and homogenized, under conditions which minimize changes in the proportion of the pyruvate dehydrogenase enzyme which is present in the active form, as described by Whitehouse and Randle (Biochem. J. 1973, 134, 651). The total amount of the enzyme present (PDHt) and the amount which is present in the active form (PDHa) are assessed by a method similar to that described by Taylor et al (J. Biol. Chem. 1973, 248, 73). The fat-feeding process is found to depress the ratio PDHa/PDHt from a normal value of about 0.7 to a value in the range from 0.05 to 0.2.

Compound	myocardial blood flow (anesthetized beagle dogs)	myocardial oxygen consumption (anesthetized beagle dogs)	myocardial pyruvate uptake (anesthetized beagle dogs)	period of increased myocardial pyruvate uptake after dosing (anesthetized beagle dogs)	PDHa/PDHt ratio at 1.5 hours ([1]; dose 0.6 mM/kg subcutaneous, placebo ratio 0.12)	PDHa/PDHt ratio at 1.5 hours ([1]; dose 1.2 mM/kg subcutaneous, placebo ratios 0.11-0.24)
O=C(O)C(=O)c1ccc(O)cc1 [OH, H, OH, p-hydroxyphenylglyoxylic acid]	increased	decreased	increases	at least 90 minutes	–	–
CSc1ccc(C(=O)C(=O)O)cc1 [SCH3, H, OH, p-(methylthio)phenylglyoxylic acid]	–	–	–	–	0.24	0.47
